As usually defined, the Ki is a dissociation constant, usually derived from enzyme kinetics or from competition with a known ligand. Read a low Ki as higher affinity.

This note sets out measurements from patent publication US20260027121A1, “LIGAND ACTING ON ADENOSINE RECEPTORS AND COMPOSITION COMPRISING SAME FOR PREVENTION, ALLEVIATION, OR TREATMENT OF OBESITYS” (FUTURE MEDICINE CO., LTD., priority 2022, published 2026).

In assay [1] the test system is brown adipocytes. Kind of assay: Immunoblot of PKA downstream proteins (P-HSL, P-CREB) in brown adipocytes. Format: cell-based, mouse. The settings on record: 0.1 μM, 24 hours, FIG. 3D. The method, then:
(§1) Adipocyte precursor cells capable of differentiating into brown adipocytes were isolated from mouse brown adipose tissue. Cells were cultured in Dulbecco's modified Eagle's medium (Welgene, LM001-07) containing 10% fetal bovine serum (FBS, Gibco, 16000044) and 1% Penicillin Streptomycin (Welgene, LS202-02) at 37° C. in a humidified atmosphere with 5% CO2. When the cells reached about 100% confluency, the cells were exposed to a differentiation medium supplemented with 2.5 mM isobutyl methylxanthine (IBMX, Cayman, I5879), 0.125 mM indomethacin (Cayman, 70270), 1 μM dexamethasone (Cayman), 1 μg/mL insulin (Sigma, I9278), and 1 nM triiodothyronine (T3, Cayman, 6028) for 3 days for adipogenesis. Then, the cells were maintained in a growth medium containing 1 μg/mL insulin and 1 nM triiodothyronine (T3) for 3 days.
(§2) In the case of Western blots, the primary antibodies used for Western blots are summarized in [Table 2] above. An anti-rabbit horseradish peroxidase antibody (1:3000, Thermo Fisher, 31460) and an anti-mouse horseradish peroxidase antibody (1:3000, Jackson, 115-035-174) were used as secondary antibodies. All antibodies were diluted in a blocking buffer (5% skimmed milk or 5% bovine serum albumin in TBST). Western blot images were acquired using a Fusion Solo chemiluminescence imaging system (Vilber Lourmat) and analyzed with Evolution Capt software (version 17.03). NIH ImageJ software was used for quantification.
A general note: In western blotting, separated proteins are transferred to a membrane and probed.

Assay [2] deals with brown adipocytes. Nature of the assay: Lipolysis: glycerol and free fatty acid levels in conditioned medium. The note with it: 0.1 μM, 24 hours. It is filed as cell-based, mouse. The method, then: as §1
The free fatty acid (FFA) levels in the medium were measured using an NEFA reagent (WAKO, 436-91693) according to the manufacturer's product protocol.
Glycerol and free fatty acid (FFA) levels in a medium were measured using a glycerol reagent (Sigma Aldrich, F6428) and a NEFA reagent (WAKO, 436-91693) according to the manufacturer's product protocols.

The test system of assay [3] is brown adipocytes. Kind of assay: Immunoblot of mitochondrial proteins and UCP1 in brown adipocytes. Format: cell-based, mouse. The note with it: 0.1 μM, 24 hours, FIG. 4D. The method, then:
as §1, §2

The test system of assay [4] is CIDEA reporter mice. Nature of the assay: qPCR of brown adipocyte markers in brown adipose tissue. The settings on record: BAT, 1 mg kg-1/day, 10 days. It is filed as in vivo, mouse. The method, then:
Mice were treated with vehicle (CTL), LJ-4378 (LJ, 1 mg kg-1/day), […] (CGS21680, 1 mg kg-1/day), or A3 antagonist (LJ-4433, 1 mg kg-1/day) for 10 days. (A-B) Representative bioluminescence in dorsal and lateral positions (n=3, mean±SEM, ** p<0.01, **** p<0.0001). (C) Representative ex vivo fluorescence image and quantification of fluorescence intensity of BAT and iWAT (n=3, mean±SEM, ** p<0.01, **** p<0.0001). (D) qPCR analysis of UCP1 and CIDEAM RNA expression levels of brown adipose tissue (BAT) (n=3, mean±SEM, * p<0.05, ** p<0.01, *** p<0.001).
qPCR analysis was performed to investigate the adenosine receptor expression levels in brown adipocytes differentiated from immortalized brown adipocyte precursor cells. Primers used for the qPCR analysis are listed in the following [Table 3].

Assay [5] has as its target T1, A2A adenosine receptor (hA2AR) (Homo sapiens, UniProt P29274).
T1 construct: expressed in transfected cells; host or cells: HEK293 (adherent, stably transfected)
Nature of the assay: Radioligand binding affinity, adherent HEK293 cells stably transfected with hAR cDNA. The note with it: normalized to NECA 10 μM. The method, then:
(§3) The binding affinity of LJ-4378 and derivatives thereof to A2AAR and A3AR is as shown in the following [Table 1]. All binding affinity experiments were performed using adherent HEK293 cells stably transfected with cDNAs encoding appropriate hAR bonds, and were performed using 1 nM [3H]17, 10 nM [3H]18, or 0.2 nM [3H]16 as radioligands for A2A and A3AR, respectively. Values were normalized to a non-specific binder 5′-N-ethylcarboxamidoadenosine (NECA, 10 μM).

Assay [6] has as its target T2, A3 adenosine receptor (hA3AR) (Homo sapiens, UniProt P0DMS8).
T2 construct: expressed in transfected cells; host or cells: HEK293 (adherent, stably transfected)
T2 sequence (P0DMS8 1-318): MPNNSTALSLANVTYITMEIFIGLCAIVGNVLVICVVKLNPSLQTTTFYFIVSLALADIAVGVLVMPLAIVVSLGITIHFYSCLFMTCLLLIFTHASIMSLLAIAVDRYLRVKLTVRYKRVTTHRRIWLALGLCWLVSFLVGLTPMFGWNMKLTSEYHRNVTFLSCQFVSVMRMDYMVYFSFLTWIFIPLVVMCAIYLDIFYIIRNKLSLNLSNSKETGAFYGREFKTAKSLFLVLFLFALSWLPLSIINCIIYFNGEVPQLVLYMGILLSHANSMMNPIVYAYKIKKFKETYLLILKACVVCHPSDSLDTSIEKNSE
The description is as above. The settings on record: normalized to NECA 10 μM. The method, then:
as §3

T1 sequence (P29274 whole entry): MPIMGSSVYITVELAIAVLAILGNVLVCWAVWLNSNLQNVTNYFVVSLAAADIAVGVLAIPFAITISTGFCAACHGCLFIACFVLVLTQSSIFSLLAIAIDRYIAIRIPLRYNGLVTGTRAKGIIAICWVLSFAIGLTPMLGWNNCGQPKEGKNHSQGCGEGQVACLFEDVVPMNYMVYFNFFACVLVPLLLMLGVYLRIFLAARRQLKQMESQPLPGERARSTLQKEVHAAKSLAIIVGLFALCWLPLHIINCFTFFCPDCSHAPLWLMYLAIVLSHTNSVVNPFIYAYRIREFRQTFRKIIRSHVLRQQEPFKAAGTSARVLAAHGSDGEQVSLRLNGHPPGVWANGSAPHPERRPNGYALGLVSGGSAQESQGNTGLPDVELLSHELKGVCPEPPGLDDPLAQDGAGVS

On to `CCNC(=O)[C@H]1O[C@@H](n2cnc3c(N)nc(NCCc4ccc(CCC(=O)O)cc4)nc32)[C@H](O)[C@@H]1O` [CGS21680, reference compound], for which, in assay [1], the “P-CREB, fold increase” value was found to be 2.00±0.11 fold and the “P-HSL, fold increase” value is listed as 1.54±0.05 fold. Also, the “glycerol level in conditioned medium, fold change” value in assay [2] (FIG. 3B) came out at 1.51±0.08 fold. For the same molecule, in assay [2] (FIG. 3C), the “FFA level in conditioned medium, fold change” value amounted to 1.29±0.09 fold. Also, in assay [3], the “COXIV, fold increase” value is reported as “increased”; the “MCAD, fold increase” value is reported as “increased”; the “UCP1, fold increase” value is on record as “increased”. Moreover, in assay [4], the “Cidea mRNA level, fold increase” value was determined as 1.29±0.12 fold and the “Ucp1 mRNA level, fold increase” value is recorded as 1.72±0.17 fold.
`CC#Cc1nc(N)c2ncn([C@@H]3SC[C@@H](O)[C@H]3O)c2n1` [Compound 9a, (2R,3R,4S)-2-(6-amino-2-(prop-1-yn-1-yl)-9H-purin-9-yl)tetrahydrothiophene-3,4-diol]: the Ki in assay [5] was 117 nM; in assay [6], 64.7 nM.
On the same counts, the results for `CC#Cc1nc(NCc2cccc(F)c2)c2ncn([C@@H]3SC[C@@H](O)[C@H]3O)c2n1` [Compound 9b, (2R,3R,4S)-2-(6-((3-fluorobenzyl)amino)-2-(prop-1-yn-1-yl)-9H-purin-9-yl)tetrahydro thiophene-3,4-diol] are 772 nM and 30.5 nM.
As for `CC#Cc1nc(NCc2cccc(Cl)c2)c2ncn([C@@H]3SC[C@@H](O)[C@H]3O)c2n1` [Compound 9c, (2R,3R,4S)-2-(6-((3-chlorobenzyl)amino)-2-(prop-1-yn-1-yl)-9H-purin-9-yl)tetrahydro thiophene-3,4-diol], the inhibitory constant (Ki) worked out at 221 nM in assay [5] and 1.5 nM in assay [6].
On the same counts, the results for `CC#Cc1nc(NCc2cccc(Br)c2)c2ncn([C@@H]3SC[C@@H](O)[C@H]3O)c2n1` [Compound 9d, (2R,3R,4S)-2-(6-((3-bromobenzyl)amino)-2-(prop-1-yn-1-yl)-9H-purin-9-yl)tetrahydro thiophene-3,4-diol] are 469 nM and 11.1 nM.
`CC#Cc1nc(NCc2cccc(I)c2)c2ncn([C@@H]3SC[C@@H](O)[C@H]3O)c2n1` [Compound 9e, (2R,3R,4S)-2-(6-((3-iodobenzyl)amino)-2-(prop-1-yn-1-yl)-9H-purin-9-yl)tetrahydro thiophene-3,4-diol]: the Ki in assay [5] was determined as 121 nM; in assay [6], 20.1 nM.
As to `CCC#Cc1nc(N)c2ncn([C@@H]3SC[C@@H](O)[C@H]3O)c2n1` [Compound 9f, (2R,3R,4S)-2-(6-amino-2-(but-1-yn-1-yl)-9H-purin-9-yl)tetrahydrothiophene-3,4-diol], the inhibition constant Ki in assay [5] turned out to be 23.9 nM; in assay [6], 67.3 nM.
On the same counts, the results for `CCC#Cc1nc(NCc2cccc(F)c2)c2ncn([C@@H]3SC[C@@H](O)[C@H]3O)c2n1` [Compound 9g, (2R,3R,4S)-2-(2-(but-1-yn-1-yl)-6-((3-fluorobenzyl)amino)-9H-purin-9-yl)tetrahydrothiophene-3,4-diol] are 914 nM and 9.5 nM.
On the same counts, the results for `CCC#Cc1nc(NCc2cccc(Cl)c2)c2ncn([C@@H]3SC[C@@H](O)[C@H]3O)c2n1` [Compound 9h, (2R,3R,4S)-2-(2-(but-1-yn-1-yl)-6-((3-chlorobenzyl)amino)-9H-purin-9-yl)tetrahydrothiophene-3,4-diol] are 239 nM and 3.8 nM.
On the same counts, the results for `CCC#Cc1nc(NCc2cccc(Br)c2)c2ncn([C@@H]3SC[C@@H](O)[C@H]3O)c2n1` [Compound 9i, (2R,3R,4S)-2-(6-((3-bromobenzyl)amino)-2-(but-1-yn-1-yl)-9H-purin-9-yl)tetrahydrothiophene-3,4-diol] are 113 nM and 0.293 nM.
For `CCC#Cc1nc(NCc2cccc(I)c2)c2ncn([C@@H]3SC[C@@H](O)[C@H]3O)c2n1` [Compound 9j, (2R,3R,4S)-2-(2-(but-1-yn-1-yl)-6-((3-iodobenzyl)amino)-9H-purin-9-yl)tetrahydrothiophene-3,4-diol], the Ki was found to be 58 nM in assay [5] and 8.6 nM in assay [6].
